Results reported in patent US20240376056A1, “PHENYL ACETAMIDE BASED IL-17A MODULATORS AND USES THEREOF” (DiCE Alpha, Inc., priority 2021, published 2024).

Target: T1, IL-17A/A (Homo sapiens, UniProt Q16552)
T1 construct: purchased Genscript Z03228
T1 sequence (Q16552 24-155): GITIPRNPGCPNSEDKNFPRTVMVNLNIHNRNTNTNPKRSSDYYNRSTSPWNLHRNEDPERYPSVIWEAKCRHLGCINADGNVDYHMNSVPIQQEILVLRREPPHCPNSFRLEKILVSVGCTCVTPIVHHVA
Test: HEK-Blue IL-17A/A inhibition assay (SEAP reporter)
Type: cell-based
Details: HEK-Blue cells (HEK 293 expressing IL-17RA, IL-17RC, Act1); IL-17A/A stimulation; 20 hours; SEAP read at A630; 4-parameter fit
How it was run: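 HEK 293 cells engineered with IL-17RA, IL-17RC and Act1 (NFκB-driven SEAP) given titrated compound (top final 10, 1 or 0.3 uM; 0.1% DMSO) just before IL-17A/A, then incubated 20 h. SEAP in media developed with Quanti-Blue, read at A630; IC50 by 4-parameter nonlinear fit.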

Row | Structure (SMILES) | IC50
1 | COc1cc(NC(=O)[C@@H](NC(=O)c2ccnn2C)C(C2CC2)C2CC2)c(F)cc1C(C)C(=O)N(C)CC(F)(F)F (stereo partly drawn) [Compound 179] | < 100 nM
2 | CC(C)n1nccc1C(=O)N[C@H](C(=O)Nc1ccc([C@H](C)C(=O)NC(C2CCOC2)C(F)(F)F)cc1F)C(C1CC1)C1CC1 (single isomer, unassigned) [Compound 152] | 100 to 1000 nM
3 | C[C@H](C(=O)NCC(F)(F)F)c1ccc(NC(=O)[C@@H](NC(=O)c2ccnn2C2CCCNC2)C(C2CC2)C2CC2)c(F)c1 (single isomer, unassigned) [Compound 97] | > 1000 nM
4 | CC[C@@H](c1ccc(F)cc1)[C@H](NC(=O)c1ccnn1C(C)C)C(=O)Nc1cc(OC)c(C(C)C(=O)NCC(F)(F)F)cc1F (stereo partly drawn) [Compound 177] | 100 to 1000 nM
5 | Cc1cc(NC(=O)[C@@H](NC(=O)c2ccnn2C(C)C)C(C2CC2)C2CC2)c(F)cc1C(C)C(=O)N(C)CC(F)(F)F (stereo partly drawn) [Compound 208] | < 100 nM
6 | COCC(C(=O)NCC(F)(F)F)c1ccc(NC(=O)[C@@H](NC(=O)c2ccnn2C(C)C)C(C2CC2)C2CC2)c(F)c1 (single isomer, unassigned) [Compound 104] | > 1000 nM
7 | CC(C)n1nccc1C(=O)N[C@H](C(=O)Nc1ccc([C@H](C)C(=O)N2CC(O)CC2C(F)(F)F)cc1F)C(C1CC1)C1CC1 (single isomer, unassigned) [Compound 142] | < 100 nM
8 | CC(=O)Nc1cc(NC(=O)[C@@H](NC(=O)c2ccnn2C(C)C)C(C2CC2)C2CC2)c(F)cc1C(C)C(=O)NCC(F)(F)F (single isomer, unassigned) [Compound 159] | < 100 nM
9 | CCc1nocc1C(=O)N[C@H](C(=O)Nc1ccc([C@H](C)C(=O)NCC(F)(F)F)cc1F)C(C1CC1)C1CC1 [Compound 84, N-((S)-1,1-dicyclopropyl-3-((2-fluoro-4-((S)-1-oxo-1-((2,2,2-trifluoroethyl)amino)propan-2-yl)phenyl)amino)-3-oxopropan-2-yl)-3-ethylisoxazole-4-carboxamide] | < 100 nM
10 | CC(C(=O)NCC(F)(F)F)c1cc(F)c(NC(=O)[C@@H](NC(=O)c2ccnn2C(C)C)C2CCC(F)(F)CC2)cc1OC(F)(F)F (single isomer, unassigned) [Compound 220] | > 1000 nM
11 | CC(C)n1nccc1C(=O)N[C@H](C(=O)Nc1ccc([C@H](C)C(=O)N2C[C@H](F)C[C@H]2C(F)(F)F)cc1F)C(C1CC1)C1CC1 [Compound 58, N-((S)-1,1-dicyclopropyl-3-((2-fluoro-4-((S)-1-((2S,4R)-4-fluoro-2-(trifluoromethyl)pyrrolidin-1-yl)-1-oxopropan-2-yl)phenyl)amino)-3-oxopropan-2-yl)-1-isopropyl-1H-pyrazole-5-carboxamide] | 100 to 1000 nM
12 | Cc1cc(NC(=O)[C@@H](NC(=O)c2nonc2C)C(C2CC2)C2CC2)c(F)cc1C(C)C(=O)N(C)CC(F)(F)F (stereo partly drawn) [Compound 211] | < 100 nM
13 | CC(C(=O)NCC(F)(F)F)c1cc(F)c(NC(=O)[C@@H](NC(=O)c2ccnn2C(C)C)C2CCC(F)(F)CC2)cc1OC(F)(F)F (single isomer, unassigned) [Compound 219] | 100 to 1000 nM
14 | Cc1cc(NC(=O)[C@@H](NC(=O)c2nonc2C)C2CCC(F)(F)CC2)c(F)cc1C(C)C(=O)NCC(F)(F)F (stereo partly drawn) [Compound 197] | > 1000 nM
15 | CC(C)n1nccc1C(=O)N[C@H](C(=O)Nc1ccc([C@H](C)C(=O)N[C@H](CO)C2CCC2)cc1F)C(C1CC1)C1CC1 [Compound 155] | > 1000 nM
16 | CC(C(=O)N(C)CC(F)(F)F)c1cc(F)c(NC(=O)[C@@H](NC(=O)c2ccnn2C(C)C)C(C2CC2)C2CC2)cc1OC(F)(F)F (stereo partly drawn) [Compound 246] | > 1000 nM
17 | CNCc1cc(NC(=O)[C@@H](NC(=O)c2ccnn2C(C)C)C(C2CC2)C2CC2)c(F)cc1C(C)C(=O)NCC(F)(F)F (stereo partly drawn) [Compound 226] | 100 to 1000 nM
18 | CC(C(=O)N(C)CC(F)(F)F)c1cc(F)c(NC(=O)[C@@H](NC(=O)c2ccnn2C(C)C)C(C2CC2)C2CC2)cc1N(C)C (stereo partly drawn) [Compound 233] | > 1000 nM
19 | CCCNC(=O)Cc1ccc(NC(=O)[C@@H](NC(=O)c2ccnn2CC)C2CCCCCC2)c(F)c1 [Compound 114, (S)-N-(1-cycloheptyl-2-((2-fluoro-4-(2-oxo-2-(propylamino)ethyl)phenyl)amino)-2-oxoethyl)-1-ethyl-1H-pyrazole-5-carboxamide] | > 1000 nM
20 | CC(C)n1nccc1C(=O)N[C@H](C(=O)Nc1ccc([C@H](C)C(=O)N2CC3(C2)CC(F)(F)C3)cc1F)C(C1CC1)C1CC1 [Compound 37] | > 1000 nM

Row | Structure (SMILES) | IC50
21 | CC[C@@H](c1ccc(F)cc1)[C@H](NC(=O)c1ccnn1CC)C(=O)Nc1ccc([C@H](C)C(=O)N(C)CC(F)(F)F)cc1F [Compound 85, -ethyl-N-((2S,3S)-1-((2-fluoro-4-((S)-1-(methyl(2,2,2-trifluoroethyl)amino)-1-oxopropan-2-yl)phenyl)amino)-3-(4-fluorophenyl)-1-oxopentan-2-yl)-1H-pyrazole-5-carboxamide] | 100 to 1000 nM
22 | CCn1nccc1C(=O)N[C@H](C(=O)Nc1ccc([C@H](C)C(=O)NCC(F)(F)F)cc1F)C(C1CCC1)C1CCC1 [Compound 88, N-((S)-1,1-dicyclobutyl-3-((2-fluoro-4-((S)-1-oxo-1-((2,2,2-trifluoroethyl)amino)propan-2-yl)phenyl)amino)-3-oxopropan-2-yl)-1-ethyl-1H-pyrazole-5-carboxamide] | 100 to 1000 nM
23 | COc1cc(NC(=O)[C@@H](NC(=O)c2ccnn2C(C)C)C(C2CC2)C2CC2)c(F)cc1C(C)C(=O)NCC(F)(F)F (single isomer, unassigned) [Compound 122] | > 1000 nM
24 | CCn1nccc1C(=O)N[C@H](C(=O)Nc1cc(C)c(C(C)C(=O)N(C)CC(F)(F)F)cc1F)C1CCC(F)(F)CC1 (stereo partly drawn) [Compound 218] | < 100 nM
25 | CC(C(=O)NCC(F)(F)F)c1cc(F)c(NC(=O)[C@@H](NC(=O)c2ccnn2C(C)C)C(C2CC2)C2CC2)cc1C(F)(F)F (stereo partly drawn) [Compound 169] | < 100 nM
26 | CC(C)n1nccc1C(=O)N[C@H](C(=O)Nc1ccc([C@H](C)C(=O)NCC(F)(F)CN)cc1F)C(C1CC1)C1CC1 [Compound 100, N-((S)-1-((4-((S)-1-((3-amino-2,2-difluoropropyl)amino)-1-oxopropan-2-yl)-2-fluorophenyl)amino)-3,3-dicyclopropyl-1-oxopropan-2-yl)-1-isopropyl-1H-pyrazole-5-carboxamide] | > 1000 nM
27 | CCC(C1CCC1)[C@H](NC(=O)c1ccnn1CC)C(=O)Nc1ccc([C@H](C)C(=O)NCC(F)(F)F)cc1F (single isomer, unassigned) [Compound 87] | 100 to 1000 nM
28 | CCc1cc(NC(=O)[C@@H](NC(=O)c2ccnn2C(C)C)C(C2CC2)C2CC2)c(F)cc1[C@@H](C)C(=O)NCC(F)(F)F [Compound 112, N-((S)-1,1-dicyclopropyl-3-((5-ethyl-2-fluoro-4-((R)-1-oxo-1-((2,2,2-trifluoroethyl)amino)propan-2-yl)phenyl)amino)-3-oxopropan-2-yl)-1-isopropyl-1H-pyrazole-5-carboxamide] | 100 to 1000 nM
29 | CC(C(=O)N1CC(C#N)CCC1C(F)(F)F)c1ccc(NC(=O)[C@@H](NC(=O)c2ccnn2C(C)C)C(C2CC2)C2CC2)c(F)c1 (stereo partly drawn) [Compound 204] | 100 to 1000 nM
30 | Cc1cc(NC(=O)[C@@H](NC(=O)c2ccnn2C)C(C2CC2)C2CC2)c(F)cc1C(C)C(=O)NCC(F)(F)F (stereo partly drawn) [Compound 222] | > 1000 nM
31 | CC(C(=O)NCC(F)(F)F)c1cc(F)c(NC(=O)[C@@H](NC(=O)c2ccnn2C(C)C)C(C2CC2)C2CC2)cc1NC(=O)OCCN (stereo partly drawn) [Compound 256] | 100 to 1000 nM
32 | CC(C)n1nccc1C(=O)N[C@H](C(=O)Nc1ccc(C(N)C(=O)NCC(F)(F)F)cc1F)C(C1CC1)C1CC1 (single isomer, unassigned) [Compound 191] | 100 to 1000 nM
33 | CC(C(=O)NCC(F)(F)F)c1cc(F)c(NC(=O)[C@@H](NC(=O)c2ccnn2C(C)C)C(C2CC2)C2CC2)cc1N(C)C (single isomer, unassigned) [Compound 163] | < 100 nM
34 | CC(C(=O)NCC(F)(F)F)c1cc(F)c(NC(=O)[C@@H](NC(=O)c2ccnn2C)C(C2CC2)C2CC2)cc1OC(F)(F)F (stereo partly drawn) [Compound 258] | < 100 nM
35 | CC(C)n1nccc1C(=O)N[C@H](C(=O)Nc1ccc([C@H](C)C(=O)N2CC(O)CC2C(F)(F)F)cc1F)C(C1CC1)C1CC1 (single isomer, unassigned) [Compound 144] | > 1000 nM
36 | CCn1nccc1C(=O)N[C@H](C(=O)Nc1ccc([C@H](C)C(=O)N2CCC[C@@H]2C(F)(F)F)cc1F)C(C1CC1)C1CC1 [Compound 9, N-((S)-1,1-dicyclopropyl-3-((2-fluoro-4-((S)-1-oxo-1-((R)-2-(trifluoromethyl)pyrrolidin-1-yl)propan-2-yl)phenyl)amino)-3-oxopropan-2-yl)-1-ethyl-1H-pyrazole-5-carboxamide] | > 1000 nM
37 | CCC(c1ccc(F)cc1)[C@H](NC(=O)c1ccnn1C(C)C)C(=O)Nc1cc(OC)c(C(C)C(=O)NCC(F)(F)F)cc1F (stereo partly drawn) [Compound 175] | 100 to 1000 nM
38 | CC(C)n1nccc1C(=O)N[C@H](C(=O)Nc1ccc([C@H](C)C(=O)N2CCOc3ccccc3C2C(F)(F)F)cc1F)C(C1CC1)C1CC1 (stereo partly drawn) [Compound 56, N-((2S)-1,1-dicyclopropyl-3-((2-fluoro-4-((2S)-1-oxo-1-(5-(trifluoromethyl)-2,3-dihydrobenzo[f][1,4]oxazepin-4(5H)-yl)propan-2-yl)phenyl)amino)-3-oxopropan-2-yl)-1-isopropyl-1H-pyrazole-5-carboxamide] | 100 to 1000 nM
39 | CCn1nccc1C(=O)N[C@H](C(=O)Nc1ccc([C@H](C)C(=O)N(C)CC(F)(F)F)cc1F)C1CCC(F)(F)CC1 [Compound 74, N-((S)-1-(4,4-difluorocyclohexyl)-2-((2-fluoro-4-((S)-1-(methyl(2,2,2-trifluoroethyl)amino)-1-oxopropan-2-yl)phenyl)amino)-2-oxoethyl)-1-ethyl-1H-pyrazole-5-carboxamide] | 100 to 1000 nM
